The record followed here is patent US7173004B2, “Macrocyclic isoquinoline peptide inhibitors of hepatitis C virus” (Bristol-Myers Squibb Company, priority 2003, dated 2007).

A word on the IC50: it is the concentration at which inhibition is half-maximal.

Assay [1] deals with T1, HCV NS3/4A protease complex, H77C strain (1a genotype) (Hepatitis C virus genotype 1a, UniProt P27958, C1454S).
T1 construct: DNA encoding the recombinant HCV NS3/4A protease complex (amino acids 1027 to 1711) for these strains; His tag (inferred from Ni-NTA purification and pET21b vector); made in house; host or cells: Escherichia coli BL21 (DE3)
T1 sequence (P27958 1027-1657 C1454S): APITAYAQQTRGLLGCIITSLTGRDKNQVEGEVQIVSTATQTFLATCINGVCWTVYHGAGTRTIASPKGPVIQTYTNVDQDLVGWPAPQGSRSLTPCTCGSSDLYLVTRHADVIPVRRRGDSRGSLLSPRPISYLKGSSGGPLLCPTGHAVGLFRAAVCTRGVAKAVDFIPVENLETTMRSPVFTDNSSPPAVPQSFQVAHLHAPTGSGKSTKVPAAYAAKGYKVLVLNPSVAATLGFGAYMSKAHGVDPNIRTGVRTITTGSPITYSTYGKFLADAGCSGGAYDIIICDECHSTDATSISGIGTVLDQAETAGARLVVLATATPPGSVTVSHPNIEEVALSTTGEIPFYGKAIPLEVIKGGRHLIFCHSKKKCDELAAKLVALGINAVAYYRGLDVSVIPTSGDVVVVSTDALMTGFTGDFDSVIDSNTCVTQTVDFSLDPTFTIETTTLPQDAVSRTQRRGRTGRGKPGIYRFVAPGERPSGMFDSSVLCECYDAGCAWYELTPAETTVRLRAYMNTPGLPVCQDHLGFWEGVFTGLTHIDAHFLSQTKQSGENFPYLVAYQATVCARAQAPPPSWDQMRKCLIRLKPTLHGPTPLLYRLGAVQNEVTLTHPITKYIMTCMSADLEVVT
T1 sequence (P27958 1658-1714 partner, looked up, stated change not applied): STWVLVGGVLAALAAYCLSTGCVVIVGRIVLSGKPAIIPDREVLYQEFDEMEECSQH
Nature of the assay: Recombinant HCV NS3/4A protease complex FRET peptide assay, H77C strain. The class given is biochemical. The text has this:
Recombinant HCV NS3/4A Protease Complex FRET Peptide Assay
The purpose of this in vitro assay was to measure the inhibition of HCV NS3 protease complexes, derived from the BMS strain, H77C strain or J416S strain, as described below, by compounds of the present invention. This assay provides an indication of how effective compounds of the present invention would be in inhibiting HCV proteolytic activity.
Serum from an HCV-infected patient was obtained from Dr. T. Wright, San Francisco Hospital. An engineered full-length cDNA (compliment deoxyribonucleic acid) template of the HCV genome (BMS strain) was constructed from DNA fragments obtained by reverse transcription-PCR (RT-PCR) of serum RNA (ribonucleic acid) and using primers selected on the basis of homology between other genotype 1a strains. From the determination of the entire genome sequence, a genotype 1a was assigned to the HCV isolate according to the classification of Simmonds et al. (See P Simmonds, K A Rose, S Graham, S W Chan, F McOmish, B C Dow, E A Follett, P L Yap and H Marsden, J. Clin. Microbiol., 31(6), 1493–1503 (1993)). […]

Assay [2] concerns human pancreatic chymotrypsin. Description: Specificity assay, chymotrypsin. Type of assay: biochemical. The note with it: read-out: Chymotrypsin activity in the specificity assays (IC50). The procedure: The specificities of compounds of the present invention were determined against a variety of serine proteases: human neutrophil elastase (HNE), porcine pancreatic elastase (PPE) and human pancreatic chymotrypsin and one cysteine protease: human liver cathepsin B. In all cases a 96-well plate format protocol using calorimetric p-nitroaniline (pNA) substrate specific for each enzyme was used as described previously (PCT Patent Application No. WO 00/09543) with some modifications to the serine protease assays. All enzymes were purchased from Sigma while the substrates were from Bachem.
Each assay included a 2 hr enzyme-inhibitor pre-incubation at room temperature followed by addition of substrate and hydrolysis to ˜30% conversion as measured on a Spectramax Pro microplate reader. Compound concentrations varied from 100 to 0.4 micromolar (“μM”) depending on their potency. […]
The percentage of inhibition was calculated using the formula: [1−((UVinh−UVblank)/(UVctl−UVblank))]×100 […]

SMILES strings stand for the structures.

On to `CC(C)(C)OC(=O)N[C@H]1CCCCC/C=C\[C@@H]2C[C@@]2(C(=O)NS(C)(=O)=O)NC(=O)[C@@H]2C[C@@H](Oc3nccc4ccccc34)CN2C1=O` [Compound 2, [18-(Isoquinolin-1-yloxy)-4-methanesulfonylaminocarbonyl-2,15-dioxo-3,16-diaza-tricyclo[14.3.0.0^4,6]nonadec-7-en-14-yl]-carbamic acid tert-butyl ester], for which the values for the IC50 in assay [1] and in assay [2] were 4.2 nM and > 100000 nM, respectively.
